Experimental findings from PubChem BioAssay (NCI) are described below.

SMILES strings stand for the structures.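 Each compound was tested at five concentrations against cells in 96-well plates for 48 hours. Here, GI50 denotes the concentration required for 50% inhibition of growth. TGI marks complete inhibition of growth.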

Common to all, as to test: NCI anticancer screen, dose series, 48 h
Experiment [1] has as its system SR leukemia.
The subject of experiment [2] is NCI-H226 lung.
Experiment [3] has as its system BT-549 breast.
For experiment [4], the system named is UACC-257 melanoma.
For experiment [5], the system named is M14 melanoma.
The test system of experiment [6] is CAKI-1 renal.
The subject of experiment [7] is OVCAR-8 ovarian.
For experiment [8], the system named is COLO 205 colon.
Experiment [9] deals with HCT-15 colon.
In experiment [10] the test system is NCI-H23 lung.

`CC(C)NCCCn1c(Sc2cc3c(cc2I)OCO3)nc2c(N)ncnc21`: the GI50 in [1] was 0.0602 µM; in [2] it was 0.767 µM; in experiment [3], 1.51 µM; in [4] it was 0.308 µM; in experiment [5], 0.233 µM; in [6], 0.527 µM. Also, the GI50 is 0.156 µM in [7], 0.0477 µM in experiment [8], 0.441 µM in [9] and 0.0897 µM in [10]. The TGI in experiment [1] was above 100 µM; in experiment [2], 79.4 µM; in experiment [3] it was above 100 µM; in experiment [4], 13.5 µM; in experiment [5], 20.9 µM; in [6], above 21.1 µM. Besides, the TGI in experiment [7] was above 100 µM; in experiment [8] it was 10.8 µM; in [9], above 100 µM; in experiment [10], above 100 µM.
Turning to `Cc1ccc(/C=N\NC(=O)c2[nH]c3ccc(F)cc3c2-c2ccccc2)cc1`, the GI50 in [1] was 0.0323 µM; in experiment [2], 0.0321 µM; in experiment [3], 0.034 µM; in [4] it was 0.493 µM; in experiment [5] it was 0.0275 µM; in [6], 0.0344 µM. Moreover, the GI50 in experiment [7] was 0.0389 µM; in experiment [8], 0.0186 µM; in experiment [9] it was 0.0288 µM; in [10], 0.0374 µM. The TGI in experiment [1] is above 64.2 µM; in experiment [2], above 100 µM; in experiment [3], 7.29 µM; in experiment [4], above 100 µM; in experiment [6], 12.5 µM; in experiment [7], above 100 µM. Moreover, the values for the TGI in experiment [8] and in experiment [10] were 0.0343 µM and above 43.8 µM, respectively.
Regarding `O=C(Nc1ccc(OCc2nnc(-c3ccc(Cl)cc3)o2)c(F)c1)Nc1ccc(Cl)c(C(F)(F)F)c1`, the GI50 in experiment [1] was 1.85 µM; in experiment [2], 2.84 µM; in experiment [3], 3.06 µM; in experiment [4] it was 2.71 µM; in experiment [5] it was 2.23 µM; in experiment [6] it was 2.97 µM. For the same molecule, the GI50 is 2.97 µM in experiment [7], 1.73 µM in experiment [8], 2.03 µM in experiment [9] and 2.36 µM in [10]. Further, the TGI in experiment [1] stood at 4.9 µM; in experiment [2], 13.2 µM; in [3] it was 11 µM; in [4], 11.1 µM; in [5], 11.7 µM; in [6] it was 12.2 µM. For the same molecule, the TGI was 12.1 µM in experiment [7], 3.5 µM in experiment [8], 10.9 µM in [9] and 7.38 µM in [10].
